What was measured:
STING HAQ-variant = target: T1, STING HAQ-variant (Homo sapiens, UniProt Q86WV6, G230A/H232R/R293Q/R71H); test: IRF-inducible SEAP reporter assay in THP1-Blue ISG cells, STING HAQ-variant; format: cell-based; conditions: STING HAQ-variant (parental or re-introduced), 24 hours incubation
T1 construct: parental THP1-Blue™ ISG cell lines (which express endogenously HAQ); host or cells: THP1-Blue ISG (parental, endogenous HAQ) or STING-KO clone re-transduced with HAQ (MSCV-ires-GFP-Blasti)
Source text: (§1) In Vitro Cytokine Induction Measured Via Activation of an Interferon Regulatory Factor Inducible Reporter Gene
(§2) Activation of the STING protein expressed in cell lines results in an increase of interferon production. By the stable integration of an interferon regulatory factor (IRF)-inducible SEAP gene (secreted embryonic alkaline phosphatase) reporter construct the functional interferon signaling pathway can be monitored. Using Invivogen's THP1-Blue™ ISG colorimetric enzyme assay and a suitable optical density (OD) reader the activity of SEAP can be detected and quantified. This technique could be used to characterize pharmacological modification of the STING pathway.
(§3) Several single nucleotide polymorphisms have been identified in the human STING gene. To determine the activity of the above described compounds, THP1-Blue™ ISG reporter cell lines expressing the different human STING variants have been generated. To do so, the endogenous human STING was first deleted using the CRISPR/CAS9 system: THP1-Blue ISG cells were electroporated with ALL-IN-ONE CRISPR plasmids targeting the STING gene (purchased from Sigma encoding the gRNA and GFP as a reporter gene for successful transduction). GFP positive cells then were sorted 24 h post transfection and expanded. Cells were then dispersed in semisolid methocel medium to allow single cell clone isolations. Clones were then screened for cGAMP responsiveness using the Quanti-Blue™ reporter assay. Non-responsive clones were subsequently analysed for STING loss by western blotting and sequencing of the STING locus.
(§4) For the overexpression of the human STING variants, a confirmed THP1-Blue™ ISG hSTING KO clone was transduced with individual retroviral plasmids (MSCV-ires-GFP-Blasti) encoding the allelic variants of hSTING (WT (H232R), HAQ, R232H, AQ and R293Q). Transduced cells were sorted for different levels of GFP fluorescence and STING allele expression was analysed by western blot.
(§5) Measurements of SEAP activity were performed in THP1-Blue™ ISG cells stably expressing the different human STING isoforms and the IRF-inducible SEAP reporter construct. Cells were cultivated in RPMI1640 medium with 10% fetal calf serum, 50 μg/ml Penicillin-Streptomycin, 100 μg/ml Zeocin, and 100 μg/ml Normocin in a 37°, 95% humidity and 5% CO2 incubator.
(§6) In preparation for the assay, the cells were distributed into the assay plates with a density of 10000 cells/15 μL per well. Compounds were prepared by an 8 point serial dilution in 50% aqueous DMSO and a final dilution step into medium to ensure a final DMSO concentration of 0.5% in the assay. 5 μL of diluted compounds were added to the plates, followed by a 24 hours incubation at 37° C.
(§7) At the day of the assay, 75 μl per well of Quanti-Blue™ reagent was added to all wells of the plate and the plate was incubated another 30 minutes at 37° C. The OD at 620 nm was measured on the EnVision reader (PerkinElmer).
(§8) EC50 values and Hill slopes were derived from 8-point four parametric non-linear curve fittings with the Megalab software (Boehringer Ingelheim) using the OD at 620 nm.
(§9) Data of EC50 values can be found in tables 2a-2e.
Data of EC50 values on STING HAQ-variant can be found in table 2a. Shown data below were either derived from the parental THP1-Blue™ ISG cell lines (which express endogenously HAQ) or from genetically engineered THP1-Blue™ ISG cell lines in which first STING has been knocked-out and the HAQ specific STING isoform has been re-introduced as described above.

STING AQ-variant = target: T2, STING AQ-variant (Homo sapiens, UniProt Q86WV6, G230A/H232R/R293Q); test: IRF-inducible SEAP reporter assay in THP1-Blue ISG cells, STING AQ-variant; format: cell-based; conditions: 24 hours incubation
T2 construct: expressed in transfected cells; host or cells: THP1-Blue ISG hSTING KO clone, retroviral MSCV-ires-GFP-Blasti
Source text: as §1, §2, §3, §4, §5, §6, §7, §8, §9
Data of EC50 values on STING AQ-variant can be found in table 2e: […]

[1] = tested on: Human STING (hSTING, residues 155-341); test: Interaction with hSTING as determined by Differential Scanning Fluorimetry (DSF); format: binding; conditions: 100 μM test compounds, 5 μM target protein
Experimental: Interaction with hSTING as Determined by Differential Scanning Fluorimetry (DSF)
In DSF, the temperature at which a protein unfolds, also called the melting temperature Tm, is measured by changes in fluorescence of a dye that binds to the hydrophobic parts of the protein. Tm shifts upon binding of a small molecule are correlated with the binding affinity of this small molecule. As target protein, Human STING (hSTING, residues 155-341, MW: 21578.4 Da; protein stock solution: c=1302 μM stock solution in 20 mM Tris, 100 mM NaCl, 2 mM TCEP pH 8.8) was used, as assay buffer 20 mM Tris, 150 mM NaCI pH7.5 was added where and as necessary.
Final concentrations of components in assay: 100 μM test compounds, 5 μM target protein, “5×” SYPR Orange (from stock solution SYPRO orange solution in DMSO (invitrogen cat.-no. S6650-500 ul), concentration “5000×”)
1) Dilutions of compound stock solutions (10 mM in DMSO) were prepared in assay buffer (20 mM Tris, 150 mM NaCl; pH7.5)
2) 5 μl fluorescent dye stock solution (5000×SYPRO Orange in DMSO) was mixed with 19 μl target protein (1302 μM) and 976 μl assay buffer.
3) 2 μl of this protein-dye-mixture (25×SYPRO Orange and 25 μM Protein) was added to 8 μl diluted compound solution as prepared in step 1. Final volume was 10 μl.
4) With every 20 compounds, two negative controls were measured.
5) The plates were prepared for duplicate measurement and centrifuged for 2 min at 1000 g.
6) For the measurement, a CFX384 Real-Time System (Bio-Rad) was used. The run consisted of 140 cycles with 0.5° C./cycle (temperature ramp 15 s/cycle, 25° C. to 95° C.).
Data analysis: The melting curves were processed in Bio-Rad CFX Manager. Peak type was set to “negative”. Two replicates of TM (melting temperature) measurements were averaged and the standard deviation was calculated.

STING H232R-variant = target: T3, STING H232R-variant (Homo sapiens, UniProt Q86WV6, H232R); test: IRF-inducible SEAP reporter assay in THP1-Blue ISG cells, STING H232R-variant; format: cell-based; conditions: STING H232R-variant (WT), 24 hours incubation
T3 construct: expressed in transfected cells; host or cells: THP1-Blue ISG hSTING KO clone, retroviral MSCV-ires-GFP-Blasti
Source text: as §1, §2, §3, §4, §5, §6, §7, §8, §9
Data of EC50 values on STING H232R-variant can be found in table 2b: […]

STING R293Q-variant = target: T4, STING R293Q-variant (Homo sapiens, UniProt Q86WV6, H232R/R293Q); test: IRF-inducible SEAP reporter assay in THP1-Blue ISG cells, STING R293Q-variant; format: cell-based; conditions: 24 hours incubation
T4 construct: expressed in transfected cells; host or cells: THP1-Blue ISG hSTING KO clone, retroviral MSCV-ires-GFP-Blasti
Source text: as §1, §2, §3, §4, §5, §6, §7, §8, §9
Data of EC50 values on STING R293Q-variant can be found in table 2d: […]

STING R232H-variant = target: T5, STING R232H-variant (Homo sapiens, UniProt Q86WV6); test: IRF-inducible SEAP reporter assay in THP1-Blue ISG cells, STING R232H-variant; format: cell-based; conditions: 24 hours incubation
T5 construct: expressed in transfected cells; host or cells: THP1-Blue ISG hSTING KO clone, retroviral MSCV-ires-GFP-Blasti
Source text: as §1, §2, §3, §4, §5, §6, §7, §8, §9
Data of EC50 values on STING R232H-variant can be found in table 2c: […]

in vitro = conditions: human, Caco-2, pH 7.4
Experimental: Cellular Permeability Measurements
Caco-2 cells were obtained from Leibniz Institute DSMZ-German Collection of Microorganisms and Cell Cultures (Braunschweig, Germany) and cultured in DMEM (Dulbecco's modified Eagle medium) containing (in final concentrations) 10% FCS (fetal calf serum), 1% NEAA (non-essential amino acids), 2 mM Glutamin, 100 U/mL Penicillin and 100 μg/mL Streptomycin. Caco-2 cells were seeded either onto 24-well Transwell inserts (Corning, #3379) for bidirectional permeability assays at a density of 160,000 cells/cm^2 and cultured for 3 weeks, with media change on every second day.
For bidirectional permeability assays 10 mM DMSO stock solutions were diluted in transport buffer (final concentrations: 128.13 mM NaCl, 5.36 mM KCl, 1 mM MgSO4, 1.8 mM CaCl2, 4.17 mM NaHCO3, 1.19 mM Na2HPO4, 0.41 mM NaH2PO4, 15 mM 2-[4-(2-hydroxyethyl)piperazin-1-yl]ethanesulfonic acid (HEPES), 20 mM glucose, pH 7.4) containing 0.25% bovine serum albumin to a final concentration of 10 μM of the test compounds and added to the apical or basal compartment. Cells were incubated with the compounds for up to 2 h. Samples from the opposite compartment were taken at different timepoints.
Compound concentrations in the compartments were quantified using a RapidFire-based high-throughput HPLC/MS/MS system (high performance liquid chromatography/mass spectrometry; Bio-Cius) that was customized to a fully automated and flexible platform, termed RIAS. In this modified setup, the sample was aspirated by a vacuum pump into a 10 μL sample loop for 250 ms and flushed onto a C4 cartridge (3.8 μL bed volume; Bio-Cius) with the aqueous mobile phase (99.9% water, 0.09% formic acid, and 0.01% TFA; flow rate 1.5 mL/min). Prior to bioanalysis samples were spiked with internal standard solution and diluted with acetonitrile (ACN) for protein precipitation. Measurement was operated in multiplereaction monitoring (MRM) mode. Quantification was performed using external calibration. A solid-phase extraction step retained the analyte for 3000 ms while interfering matrix (e.g., buffer components) was removed. With a simple step gradient, the analyte was back-eluted from the cartridge for 3,000 ms with the organic mobile phase (99.9% acetonitrile/methanol [1:1, v:v], 0.09% formic acid, and 0.01% TFA) and flushed into the mass spectrometer at a flow rate of 1.25 mL/min. Afterwards, the cartridge was re-equilibrated with the aqueous mobile phase for 500 ms (flow rate 1.5 mL/min).
Apparent permeability coefficients in the apical to basal direction (Papp,AB) and in the basal to apical direction (Papp,BA) and efflux ratios were calculated as follows: Papp,AB=QAB/(C0·s·t) Papp,BA=QBA/(C0·s·t) Efflux ratio=Papp,BA/Papp,AB
where Q is the amount of compound recovered in the receiver compartment after the incubation time t, C0 the initial compound concentration given to the donor compartment, and s the surface area of the Transwell inserts. […] In addition, transepithelial electrical resistance (TEER) values are measured for each plate before the permeability assay, and total recovery in donor and receiver compartments was determined for each compound.

T1 sequence (Q86WV6 whole entry R71H/G230A/H232R/R293Q): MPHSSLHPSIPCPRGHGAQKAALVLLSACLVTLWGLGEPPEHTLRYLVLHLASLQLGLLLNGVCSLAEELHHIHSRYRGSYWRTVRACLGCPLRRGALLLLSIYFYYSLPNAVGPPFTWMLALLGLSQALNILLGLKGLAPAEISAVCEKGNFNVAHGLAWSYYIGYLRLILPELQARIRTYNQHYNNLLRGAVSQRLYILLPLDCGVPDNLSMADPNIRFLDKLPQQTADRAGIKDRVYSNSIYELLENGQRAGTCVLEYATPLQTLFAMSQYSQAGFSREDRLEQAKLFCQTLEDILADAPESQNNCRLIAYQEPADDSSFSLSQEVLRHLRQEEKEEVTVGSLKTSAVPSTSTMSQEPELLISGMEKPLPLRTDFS
T2 sequence (Q86WV6 whole entry G230A/H232R/R293Q): as the sequence (Q86WV6 whole entry R71H/G230A/H232R/R293Q) above, with H71R counted along it
T3 sequence (Q86WV6 whole entry H232R): as the sequence (Q86WV6 whole entry R71H/G230A/H232R/R293Q) above, with H71R, A230G, Q293R counted along it
T4 sequence (Q86WV6 whole entry H232R/R293Q): as the sequence (Q86WV6 whole entry R71H/G230A/H232R/R293Q) above, with H71R, A230G counted along it
T5 sequence (Q86WV6 whole entry, stated change not applied): as the sequence (Q86WV6 whole entry R71H/G230A/H232R/R293Q) above, with H71R, A230G, R232H, Q293R counted along it

Compound | EC50 (STING HAQ-variant) [nM] | EC50 (STING AQ-variant) [nM] | thermal shift (ΔTm) [1] [K] | EC50 (STING H232R-variant) [nM] | EC50 (STING R293Q-variant) [nM] | EC50 (STING R232H-variant) [nM] | Papp A→B at 10 μM (in vitro) [×10⁻⁶ cm/s] | efflux ratio at 10 μM (in vitro)
Cc1cccc2c(-c3cccc4nn(C)cc34)nn(-c3ccc(N4CCN(C(N)=O)CC4)nc3)c12 [Example #7, 4-(5-{2′,7-dimethyl-1H,2′H-[3,4′-biindazol]-1-yl}pyri-din-2-yl)piperazine-1-car-boxamide] | 800 | 600 | 22 | 200 | 700 | 200 | 28 | 0.6
Cc1cccc2c(-c3cccc4nn(C)cc34)nn(-c3ccc(N4CCC(S(C)(=O)=O)CC4)nc3)c12 [compound 18, 1-[6-(4-methanesulfonylpi-peridin-1-yl)pyridin-3-yl]-2′,7-dimethyl-1H,2′H-3,4′-biindazole] | 700 | 600 | 22 | 200 | 700 | 200 | 36 | 0.3
Cc1cc2c(-c3nn(-c4ccc(N5CC6C(C5)C6C(=O)O)nc4)c4c(C)cccc34)cccn2n1 (stereo not drawn) [compound 68, 3-[5-(7-methyl-3-{2-methylpyrazolo[1,5-a]pyr-idin-4-yl}-1H-indazol-1-yl)pyridin-2-yl]-3-azabicy-clo[3.1.0]hexane-6-car-boxylic acid] | 1600 | 800 | 24 | 700 | 800 | 700 | 16 | 1
CC(=O)NC1C2CN(c3ccc(-n4nc(-c5cccc6nn(C)cc56)c5cccc(C)c54)cn3)CC21 (stereo not drawn) [compound 55, N-[3-(5-{2′,7-dimethyl-1H,2′H-[3,4′-biindazol]-1-yl}pyridin-2-yl)-3-azabicyclo[3.1.0]hexan-6-yl]acetamide] | 2300 | 1200 | 20 | 800 | 1700 | 700 | 21 | 1
Cc1c(CO)ccc2c(-c3cccc4nn(C)cc34)nn(-c3ccc(N4CCC(S(C)(=O)=O)CC4)nc3)c12 [compound 75, {1-[6-(4-methanesul-fonylpiperidin-1-yl)pyridin-3-yl]-2′,7-dimethyl-1H,2′H-[3,4′-biindazol]-6-yl}meth-anol] | 100 | 100 | 26 | 30 | 100 | 50 | 9 | 4.8
Cc1cccc2c(-c3cccc4nn(C)cc34)nn(-c3ccc(N4CCC5(CCC(=O)N5)CC4)nc3)c12 [Example #2, 8-(5-{2′,7-dimethyl-1H,2′H-[3,4′-biindazol]-1-yl}pyri-din-2-yl)-1,8-dia-zaspiro[4.5]decan-2-one] | 600 | 200 | 22 | 90 | 400 | 50 | 20 | 0.6

From patent publication US12065427B2, “Heterocyclic compounds capable of activating STING” (BOEHRINGER INGELHEIM INTERNATIONAL GMBH, priority 2021, dated 2024)
